Earlier results, collected in patent publication US20160304829A1, “Automated Superparamagnetic Particle Handling System” (LIFE TECHNOLOGIES AS, priority 2006, published 2016).

Molecular target: streptavidin (Streptomyces avidinii, UniProt P22629)
Settings: Piran & Riordan 1990

streptavidin, sequence (P22629 25-183): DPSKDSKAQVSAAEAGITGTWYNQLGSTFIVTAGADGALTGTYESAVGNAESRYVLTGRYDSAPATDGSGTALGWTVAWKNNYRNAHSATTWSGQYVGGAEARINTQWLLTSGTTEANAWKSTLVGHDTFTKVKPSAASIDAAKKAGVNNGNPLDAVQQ

O=C(O)CCCC[C@@H]1SC[C@@H]2NC(=O)N[C@@H]21 [biotin, cis-hexahydro-2oxo-1H-thieno [3,4]imidazole-4-pentanoic acid]
dissociation from streptavidin, times faster than dissociation from avidin: about 30 times
